# According to paper PMC7889164, “Efficient expression of a cnidarian peptide-gated ion channel in mammalian cells” (Channels, 2021):
# Read-outs that look alike come from different tables or passages of the source.
# Tests used:
# HyNaC2/3/5 [1] = assay: Whole-cell patch clamp, current density, COS-7 cells expressing HyNaC2/3/5 (native or codon-optimized); format: cell-based, Hydra magnipapillata; settings: for current density: holding potential −70 mV, mean ± SD
# Experimental: (§1) Cells were grown at 37 °C in a humidified atmosphere with 5% CO2. HEK 293 T and COS-7 cells were maintained as an adherent monolayer in Dulbecco’s modified Eagle’s medium supplemented with 10% FBS and 2 mM L-glutamine. Cells were passaged every 2–3 days.
# (§2) Holding potential was −70 mV.
# (§3) Statistical significance was defined as p < 0.05.
# HyNaCs = settings: ref [1–3]; cited from earlier work
# Description: Electrophysiological properties of HyNaCs have been successfully characterized in Xenopus laevis oocytes [[1–3],[6]]. While expression in oocytes typically results in large current amplitudes of the foreign ion channel, expression in mammalian expression systems is better suited to study, for example, trafficking and regulation of an ion channel. In this study, we, therefore, expressed HyNaC2/3/5 ...
# HyNaC2/3/5 [2] = assay: Whole-cell patch clamp, current density, HEK 293 cells expressing HyNaC2/3/5 (native or codon-optimized); format: cell-based, Hydra magnipapillata; settings: for current density: holding potential −70 mV, mean ± SD
# Experimental: as §1, §2, §3
# HyNaC2/3/5 [3] = settings: Xenopus oocytes, ref [3], cited from earlier work
# HyNaC2/3/5 [4] = assay: Ca^2+ imaging (Fura-2), HEK 293 cells expressing HyNaC2/3/5; format: cell-based, Hydra magnipapillata; settings: 1 µM Hydra-RFamide II, Fura-2 340/380 nm, 6 experiments, 2 transfections, ionomycin 1 µM positive control
# Experimental: For Ca^2+ imaging, cells were grown on coverslips and transfected as described for electrophysiological recordings. Approximately 48 h after transfection, cells were loaded with 2 µM of Fura-2-AM (Molecular Probes) for 30 min at 37 °C. Subsequently, the coverslips were mounted in a cell chamber and perfused with bath solution. Fura-2 was excited at 340/380 nm and the emission was recorded between 470 and 550 nm on an inverted microscope (IX71, Olympus, Chromaphor) using a sensicam CCD camera (PCO imaging). Acquisition and data analysis were performed using Till Vision real-time imaging software (Till Photonics). At the end of each experiment, a bath solution containing 1 µM ionomycin was used as a positive control.
# as §3
# HyNaC2/3/5 [5] = assay: Concentration-response curve (whole-cell patch clamp), codon-optimized HyNaC2/3/5 in HEK cells; format: cell-based, Hydra magnipapillata; settings: codon-optimized HyNaC2/3/5, HEK cells, −70 mV, pH 7.4, RT, mean ± S.D., n = 8, read-out: apparent affinity (EC50, Hill fit)
# Description: as §2
# where I is the current, [X] is the peptide concentration, Imin and Imax are the […] currents, respectively, EC50 is the concentration at which 50% of the maximal current is obtained, and H is the Hill coefficient (GraphPad Prism 6.0).
# [6] = system: HyNaC2/3/5 (HA-tagged or untagged subunits); assay: Whole-cell current density of codon-optimized HyNaC2/3/5 with or without C-terminal HA-tags; settings: RFamide II 1 µM, mean ± S.E.M.
# Experimental: The tags were separated from the coding sequence by a flexible linker ([sequence]). Fusion was performed in a two-step PCR protocol. For HyNaC2, the forward primer was 5’-[sequence]-3’, and the reverse primers were 5’-[sequence]-3’ and 5’-[sequence]-3’. For HyNaC3, the forward primer was 5’-[sequence]-3’, and the reverse primers were 5’-[sequence]-3’ and 5’-[sequence]-3’. And for HyNaC5, the forward primer was 5’-[sequence]-3’, and the reverse primers were 5’-[sequence]-3’ and 5’-[sequence]-3’. Constructs were cloned into pcDNA3.1(-) using BamHI and BbsI (HyNaC2) or BamHI and KpnI (HyNaC3 and HyNaC5). The sequences of the constructs were confirmed by sequencing of the full coding sequence (Eurofins Genomics).
# Codon optimization of HyNaC2, HyNaC3, and HyNaC5 to Homo sapiens codon usage preferences was performed by BioCat GmbH (Heidelberg, Germany). The cDNA was synthesized with a C-terminal flexible linker ([sequence]) followed by three HA-tags and cloned into pcDNA3.1(-) using the same restriction sites as above. To create the codon-optimized constructs without linkers and tags, PCR was performed to insert an additional restriction site of either BbsI (HyNaC2) or KpnI (HyNaC3 and HyNaC5) between the end of the HyNaC coding sequence and the start of the linker. The resulting constructs were digested with the respective restriction enzymes and cloned into pcDNA3.1(-). The successful removal of linkers and tags was confirmed by sequencing (Eurofins Genomics).
# Cells were transfected with 0.6 µg each of HyNaC2, HyNaC3, and HyNaC5 plus 0.2 µg of GFP per 35 mm dish using calcium phosphate transfection. Approximately 48 h after transfection, the culture dish with attached cells was mounted on the stage of an inverted phase-contrast microscope (IX71, Olympus). The recording chamber was perfused with the following bath solution (in mM): NaCl 128, KCl 5.4, HEPES 10, glucose 5.5, MgCl2 1, CaCl2 2; pH was adjusted with NaOH to 7.4 at RT (22–25 °C).
# Patch-clamp experiments were performed in the whole-cell configuration, using an Axon-200B amplifier (Molecular Devices; San Jose, CA, USA) and an Axon Digidata 1440 A acquisition system controlled by the Clampex 10.0 software (Molecular Devices). Signals were low pass filtered at 1 kHz and digitized at 4 kHz. Micropipettes (4–6 MΩ) were prepared from borosilicate glass capillaries with a micropipette puller (DMZ-Universal Electrode Puller; Zeitz Instruments, Martinsried, Germany) and filled with an intracellular solution containing (in mM): NaCl 10, KCl 121, HEPES 10, EGTA 5, MgCl2 2. Holding potential was −70 mV. Capacitance and series resistances were compensated electronically at 80% and digital data were stored in a compatible PC for off-line analysis using Clampfit 10.0 software (Molecular Devices).
# Electrophysiological data were analyzed offline using Clampfit 10.0 (Molecular Devices). Current density was obtained by dividing the maximal current amplitude (pA) by cell capacitance (pF). Data are presented as mean ± S.D., except for data in Figure 5, which are shown as mean ± S.E.M. The concentration–response curve for RFamide-II and codon-optimized HyNaCs was fitted to a Hill function: I=Imin+ Imax−Imin/1 + X/EC50^H
# Statistical analysis was done using an unpaired t-test to compare two conditions and a one-way ANOVA (GraphPad Prism 6.0) for more than two conditions. Statistical significance was defined as p < 0.05.
substance,measurement,setting,value
pQWLGGRFamide [Hydra-RFamide I],current amplitude compared with Hydra-RFamide II,"HyNaC2/3/5 [1]; codon-optimized HyNaC2/3/5, COS-7 cells, text: 1 µM Hydra-RFamide I (Figure 3B legend: 10 µM), n = 10, p = 0.87 (unpaired t-test)",comparable current amplitudes
same,current density,"HyNaC2/3/5 [1]; native HyNaC2/3/5, COS-7 cells, 10 µM RFamide I, pH 7.4, RT (22–25 °C), n = 12, p < 0.001 vs HEK",5 ± 2 pA/pF
same,activation of HyNaCs,HyNaCs,directly activated
same,type of current elicited,"HyNaC2/3/5 [2]; native HyNaC2/3/5, HEK cells, 10 µM RFamide I",sustained inward currents
same,current density,"HyNaC2/3/5 [2]; native HyNaC2/3/5, HEK cells, 10 µM RFamide I, pH 7.4, RT (22–25 °C), n = 12",42 ± 10 pA/pF
same,response in oocytes,HyNaC2/3/5 [3]; 10 µM Hydra-RFamide I,maximal response
"pQWFNGRFamide [Hydra-RFamide II, neuropeptide of the Hydra nervous system]",intracellular Ca^2+ signals,"HyNaC2/3/5 [4]; HEK 293 cells expressing codon-optimized HyNaC2/3/5, n = 48 cells, p < 0.001 vs native",robust intracellular Ca^2+ signals
same,intracellular Ca^2+ increase,"HyNaC2/3/5 [4]; HEK 293 cells expressing native HyNaC2/3/5, n = 36 cells",hardly increased intracellular Ca^2+ above background
same,type of current elicited,"HyNaC2/3/5 [1]; codon-optimized HyNaC2/3/5, COS-7 cells, 1 µM Hydra-RFamide II",sustained inward currents
same,current density,"HyNaC2/3/5 [1]; codon-optimized HyNaC2/3/5, COS-7 cells, 1 µM Hydra-RFamide II, pH 7.4, RT, n = 10, p < 0.001 vs native",17 ± 9 pA/pF
same,current amplitude compared with Hydra-RFamide I,"HyNaC2/3/5 [1]; codon-optimized HyNaC2/3/5, COS-7 cells, text: 10 µM Hydra-RFamide II (Figure 3B legend: 1 µM), n = 10, p = 0.87 (unpaired t-test)",comparable current amplitudes
same,current density,"HyNaC2/3/5 [1]; native HyNaC2/3/5, COS-7 cells, text: 1 µM Hydra-RFamide II (Figure 3 legend: native trace 10 µM RFamide I), n = 12",2 ± 3 pA/pF
same,activation of HyNaCs,HyNaCs,directly activated
same,EC50,HyNaC2/3/5 [5],140 ± 30 nM
same,type of current elicited,"HyNaC2/3/5 [2]; codon-optimized HyNaC2/3/5, HEK cells, 1 µM Hydra-RFamide II",sustained inward currents
same,current density,"HyNaC2/3/5 [2]; codon-optimized HyNaC2/3/5, HEK cells, 1 µM Hydra-RFamide II, pH 7.4, RT, n = 15, p < 0.001 vs native",113 ± 9 pA/pF
same,current density,"[6]; HyNaC2 carried the HA-tag, n = 7–8, p < 0.05 vs untagged",49 ± 9 pA/pF
same,current density,"[6]; HyNaC3 carried the HA-tag, n = 7–8, p < 0.05 vs untagged",57 ± 8 pA/pF
same,current density,"[6]; HyNaC5 carried the HA-tag, n = 7–8, p < 0.05 vs untagged",50 ± 9 pA/pF
same,current density,"[6]; all subunits carrying an HA-tag, n = 7, p < 0.0001",22 ± 7 pA/pF
same,current density,"[6]; no subunit carried the tag, n = 7–8",84 ± 9 pA/pF
same,response in oocytes,HyNaC2/3/5 [3]; 1 µM Hydra-RFamide II,maximal response
